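Method: 48-hour compound exposure of cells in 96-well plates, five concentrations, linear interpolation of endpoints. The concentration for 50% growth inhibition is given as GI50.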 Calls of active or inactive are those of the source. Cut-off read from the data, not from the text of the source: active = GI50 up to about 1.1 µM and inactive = higher.

What all share (test): NCI tumour cell line growth inhibition, 48 h
Assay [1] has as its system SNB-75.
Assay [2] relates to OVCAR-8.
The test system of assay [3] is SK-OV-3.
Assay [4] has as its system A549.
For assay [5], the system named is NCI/ADR-RES.
For assay [6], the system named is SR.
The test system of assay [7] is MOLT-4.
Assay [8] has as its system PC-3.
In assay [9] the test system is U-251.
In assay [10] the test system is SN12C.
In assay [11] the test system is Hs-578T.
In assay [12] the test system is NCI-H522.
The test system of assay [13] is SK-MEL-28.
Assay [14] relates to SF-295.
Assay [15] has as its system NCI-H23.
The test system of assay [16] is A498.
Assay [17] deals with LOX IMVI.
In assay [18] the test system is HCT-116.
Assay [19] has as its system UACC-62.
The subject of assay [20] is HCC 2998.

For the compound `Cc1nc2ccc(S(=O)(=O)O)cc2c(=O)n1-c1ccc(C(=O)NN2C(=O)C(Cl)C2c2ccccc2O)cc1` (stereo not given), the GI50 in [1], in [2], in assay [3], in assay [4], in [5] and in assay [6] was > 100 µM (inactive) in each case. Besides, the GI50 in [7], in assay [8], in assay [9], in [10], in assay [11] and in [12] was > 100 µM (inactive) in each case. Further, the GI50 in assay [13], in [14], in assay [15], in assay [16], in [17] and in assay [18] was > 100 µM (inactive) throughout.
Turning to `CCCC(=O)OCC1OC(n2cc(F)c(=O)[nH]c2=O)C(F)C1O` (stereo not given), the GI50 in assay [19] is > 31.5 µM (inactive); in assay [1], > 55 µM (inactive); in assay [2] it was > 38.5 µM (inactive); in assay [3] it was > 74 µM (inactive); in assay [4], 5.85 µM (inactive); in [5] it was 53.3 µM (inactive). In addition, the GI50 in assay [7] was > 35.6 µM (inactive); in assay [8], > 100 µM (inactive); in assay [9], 10.8 µM (inactive); in assay [10], > 82.8 µM (inactive); in assay [11], 99.3 µM (inactive); in assay [12], > 75 µM (inactive). Further, the GI50 is > 100 µM (inactive) in assay [13]; > 27.5 µM (inactive) in assay [14]; > 88.7 µM (inactive) in assay [15]; > 100 µM (inactive) in assay [20]; 8.39 µM (inactive) in [16]; 11.4 µM (inactive) in assay [17]. For the same compound, in assay [18], the GI50 was > 22.4 µM (inactive).
`COC(=O)c1ccc(Oc2nc3ccccc3nc2-c2cccs2)cc1`: the GI50 in assay [19] was 40.6 µM (inactive); in assay [1], 7.83 µM (inactive); in [2] it was 51.8 µM (inactive); in assay [3], 35.5 µM (inactive); in assay [4], 26.1 µM (inactive); in assay [5] it was 64.1 µM (inactive). In addition, the GI50 in [6] was 48.5 µM (inactive); in [7], > 100 µM (inactive); in assay [8], 44.9 µM (inactive); in [10] it was > 100 µM (inactive); in assay [11], 19.5 µM (inactive); in assay [12] it was 76 µM (inactive). Further, the GI50 was > 100 µM (inactive) in assay [13]; 18.7 µM (inactive) in assay [14]; 23.6 µM (inactive) in [15]; > 100 µM (inactive) in assay [17]; 41.3 µM (inactive) in assay [18].
On to `O=C1CC[C@@]23CC(=O)O[C@@H]2CCCC3C1` (stereo not given in full), for which the GI50 in assay [19], in assay [1], in assay [2], in [3], in assay [4] and in assay [5] was > 100 µM (inactive) throughout. In addition, the GI50 in [6], in assay [7], in assay [8], in assay [9], in assay [10] and in assay [11] was > 100 µM (inactive) throughout. Further, the GI50 in assay [12], in [13], in assay [14], in assay [15], in assay [20] and in [17] was > 100 µM (inactive) in each case. Also, the GI50 in assay [18] was > 100 µM (inactive).
For the compound `Oc1cccc(-c2cc(=S)ss2)c1`, the GI50 was 18.5 µM (inactive) in assay [19]; 17.7 µM (inactive) in assay [2]; 20 µM (inactive) in [3]; 18.5 µM (inactive) in assay [4]; 17.5 µM (inactive) in [5]; 2.76 µM (inactive) in assay [6]. The GI50 in assay [7] was 3.22 µM (inactive); in [8], 14.4 µM (inactive); in [9], 14.8 µM (inactive); in assay [10], 20.2 µM (inactive); in assay [11], 16.3 µM (inactive); in [12], 6.89 µM (inactive). Also, the GI50 was 19.7 µM (inactive) in assay [13]; 14.3 µM (inactive) in assay [14]; 8.79 µM (inactive) in assay [15]; 17.7 µM (inactive) in [20]; 14.8 µM (inactive) in assay [17]; 17.9 µM (inactive) in [18].
Regarding `Cc1ccc(/N=C2N=C(Cl)/C(=C\c3ccco3)N\2)cc1`, the GI50 in assay [19], in [1], in assay [2], in [3], in assay [4] and in [5] was > 100 µM (inactive) each time. In addition, the GI50 is 96.8 µM (inactive) in [6]; > 91.8 µM (inactive) in [7]; > 100 µM (inactive) in assay [8]; > 100 µM (inactive) in assay [9]; > 100 µM (inactive) in [10]; > 100 µM (inactive) in assay [11]. The GI50 in [12], in assay [13], in assay [14], in [15], in [16] and in assay [17] was > 100 µM (inactive) in each case. Moreover, the GI50 in assay [18] is > 100 µM (inactive).
`CC(=O)N1CCN(CCCCN2c3ccccc3Sc3cc(N=[N+]=[N-])ccc32)CC1`: the GI50 in assay [19] is 2.69 µM (inactive); in assay [1], 13 µM (inactive); in assay [2], 15.4 µM (inactive); in assay [4], 16.1 µM (inactive); in assay [5], 12.6 µM (inactive); in assay [6] it was 9.06 µM (inactive). Besides, the GI50 was 8.47 µM (inactive) in assay [7]; 7 µM (inactive) in assay [8]; 14.4 µM (inactive) in assay [9]; 15.6 µM (inactive) in [10]; 15 µM (inactive) in [11]; 13 µM (inactive) in assay [12]. In addition, the GI50 in assay [13] was 18.1 µM (inactive); in [14], 16.8 µM (inactive); in assay [15], 15.7 µM (inactive); in assay [20] it was 14.5 µM (inactive); in assay [17] it was 14.9 µM (inactive); in assay [18] it was 13.8 µM (inactive).
Consider `O=C1C=C(c2ccccc2)OC1C1Sc2ccccc2NC1=O` (stereo not given), for which the GI50 was 11.9 µM (inactive) in [19]; 5.11 µM (inactive) in [1]; 9.31 µM (inactive) in assay [2]; 8.09 µM (inactive) in assay [3]; 3.06 µM (inactive) in assay [4]; 34.5 µM (inactive) in assay [5]. Moreover, the GI50 in [7] is 10.6 µM (inactive); in assay [8] it was 10.9 µM (inactive); in [9] it was 4.01 µM (inactive); in assay [10], 9.23 µM (inactive); in assay [11], 6.11 µM (inactive); in assay [12] it was 6.85 µM (inactive). The GI50 in assay [13] is 9.73 µM (inactive); in [14] it was 5.98 µM (inactive); in assay [15], 3.77 µM (inactive); in assay [20], 5.69 µM (inactive); in assay [16], 7.89 µM (inactive); in assay [17], 13.6 µM (inactive). Besides, in assay [18], the GI50 is 4.5 µM (inactive).
As for `O=C1c2cccc3cc([N+](=O)[O-])cc(c23)C(=O)N1CCCN1CCN(CCCNc2ccc3ncn4c5ccccc5c(=O)c2c34)CC1`, the GI50 in [19] was < 0.005 µM (active); in [1] it was < 0.005 µM (active); in assay [2], < 0.005 µM (active); in assay [3], 0.0198 µM (active); in [4], < 0.005 µM (active); in assay [5] it was < 0.005 µM (active). For the same compound, the GI50 in assay [7], in assay [8], in assay [9], in [10], in [11] and in assay [12] was < 0.005 µM (active) each time. Besides, the GI50 in [13] was 0.0562 µM (active); in [14], < 0.005 µM (active); in assay [15], < 0.005 µM (active); in [20], < 0.005 µM (active); in [16], < 0.005 µM (active); in [17], < 0.005 µM (active). Further, in assay [18], the GI50 is < 0.005 µM (active).
As for `N#Cc1ccc(C(O)C(F)(F)c2nc3ccccc3o2)cc1` (stereo not given), the GI50 in assay [19] is 40.9 µM (inactive); in assay [1], > 100 µM (inactive); in assay [2], 98.6 µM (inactive); in [3], > 100 µM (inactive); in assay [5], 60.5 µM (inactive); in assay [6], 86.9 µM (inactive). Besides, the GI50 in assay [7] is 29.2 µM (inactive); in [8] it was 33.1 µM (inactive); in assay [9], > 100 µM (inactive); in assay [11], > 100 µM (inactive); in [13], > 100 µM (inactive); in assay [14], 41.8 µM (inactive). Besides, the GI50 in assay [15] was > 100 µM (inactive); in assay [20] it was > 100 µM (inactive); in [17], 42.9 µM (inactive); in [18] it was 92.3 µM (inactive).
Consider `C[N+]1(CCC(=O)c2ccco2)CC2CCC(CC2)C1` (stereo not given), for which the GI50 in assay [19], in assay [1], in assay [2], in assay [4], in assay [5] and in [6] was > 100 µM (inactive) throughout. Moreover, the GI50 in [7], in assay [8], in [9], in [10], in [11] and in assay [12] was > 100 µM (inactive) in each case. Further, the GI50 in assay [13], in [14], in assay [15], in assay [16], in [17] and in [18] was > 100 µM (inactive) in each case.

The values above are taken from ChEMBL document CHEMBL1201862, “PubChem BioAssay data set” (2004).
